Common to all, as to format: functional
Settings in all cases: time 16-24 hrs

For one assay, the system named is Acinetobacter baumannii. Kind of assay: Antibacterial activity against Carbapenem-resistant Acinetobacter baumannii clinical isolate incubated for 16 to 24 hrs by CLSI based broth microdilution method.
The subject of the next assay is Klebsiella pneumoniae. Kind of assay: Antibacterial activity against Klebsiella pneumoniae clinical isolate incubated for 16 to 24 hrs by CLSI based broth microdilution method. For orientation: Broth dilution looks for growth in wells or tubes with falling amounts of substance.
For assay [1], the system named is Staphylococcus aureus. Kind of assay: Antibacterial activity against vancomycin-intermediate Staphylococcus aureus incubated for 16 to 24 hrs by CLSI based broth microdilution method.
Another assay deals with Escherichia coli. Kind of assay: Antibacterial activity against Escherichia coli AB1157 incubated for 16 to 24 hrs by CLSI based broth microdilution method.
The subject of the next assay is Pseudomonas aeruginosa. Kind of assay: Antibacterial activity against Pseudomonas aeruginosa PAO1 incubated for 16 to 24 hrs by CLSI based broth microdilution method.
Assay [2] concerns Enterococcus faecium. Kind of assay: Antibacterial activity against vancomycin-resistant Enterococcus faecium harboring VanB phenotype incubated for 16 to 24 hrs by CLSI based broth microdilution method.
The test system of assay [3] is Staphylococcus aureus. As to the kind of experiment: Antibacterial activity against methicillin-susceptible Staphylococcus aureus incubated for 16 to 24 hrs by CLSI based broth microdilution method.
For assay [4], the system named is Enterococcus faecium. Kind of assay: Antibacterial activity against vancomycin-resistant Enterococcus faecium harboring VanM phenotype incubated for 16 to 24 hrs by CLSI based broth microdilution method.
Assay [5] deals with Enterococcus faecium. Kind of assay: Antibacterial activity against vancomycin-resistant Enterococcus faecium harboring VanA phenotype incubated for 16 to 24 hrs by CLSI based broth microdilution method.

≈ marks a conversion by molar mass, not a printed value. Some results are limits rather than exact numbers.

Turning to `CN[C@H](CC(C)C)C(=O)N[C@H]1C(=O)N[C@@H](CC(N)=O)C(=O)N[C@H]2C(=O)N[C@H]3C(=O)N[C@H](C(=O)N[C@H](C(=O)O)c4cc(O)c(CNCCCCCCCCN)c(O)c4-c4cc3ccc4O)[C@H](O)c3ccc(c(Cl)c3)Oc3cc2cc(c3O[C@@H]2O[C@H](CO)[C@@H](O)[C@H](O)[C@H]2O[C@H]2C[C@](C)(N)[C@H](O)[C@H](C)O2)Oc2ccc(cc2Cl)[C@H]1O`, the MIC in the assay with Acinetobacter baumannii was 128 µg/mL (≈ 79.7 µM); with Klebsiella pneumoniae it was > 128 µg/mL; in the assay on Staphylococcus aureus [1], 8 µg/mL (≈ 4.98 µM); in the assay on Escherichia coli it was 128 µg/mL (≈ 79.7 µM); against Pseudomonas aeruginosa, 128 µg/mL (≈ 79.7 µM); in the assay on Enterococcus faecium [2], 32 µg/mL (≈ 19.9 µM). The results for the MIC with Staphylococcus aureus [3], in the assay on Enterococcus faecium [4] and against Enterococcus faecium [5] were 4 µg/mL (≈ 2.49 µM), 128 µg/mL (≈ 79.7 µM) and 128 µg/mL (≈ 79.7 µM), respectively.
Regarding `Cc1ccc(-c2ccc(CNC(=O)[C@H]3NC(=O)[C@H]4NC(=O)[C@H](NC(=O)[C@@H]5NC(=O)[C@H](CC(N)=O)NC(=O)[C@H](NC(=O)[C@H](N)CC(C)C)[C@H](O)c6ccc(c(Cl)c6)Oc6cc5cc(c6O[C@@H]5O[C@H](CO)[C@@H](O)[C@H](O)[C@H]5O[C@H]5C[C@](C)(N)[C@H](O)[C@H](C)O5)Oc5ccc(cc5Cl)[C@H]4O)c4ccc(O)c(c4)-c4c(O)cc(O)cc43)cc2)cc1`, the MIC is > 128 µg/mL with Acinetobacter baumannii; > 128 µg/mL against Klebsiella pneumoniae; 0.5 µg/mL (≈ 0.31 µM) in the assay with Staphylococcus aureus [1]; 128 µg/mL (≈ 79.3 µM) in the assay with Escherichia coli; > 128 µg/mL against Pseudomonas aeruginosa; 2 µg/mL (≈ 1.24 µM) against Enterococcus faecium [2]. In addition, the values for the MIC with Staphylococcus aureus [3], against Enterococcus faecium [4] and in the assay with Enterococcus faecium [5] were 0.125 µg/mL (≈ 0.0774 µM), 8 µg/mL (≈ 4.96 µM) and 8 µg/mL (≈ 4.96 µM), respectively.
On to `CC(C)C[C@@H](N)C(=O)N[C@H]1C(=O)N[C@@H](CC(N)=O)C(=O)N[C@H]2C(=O)N[C@H]3C(=O)N[C@H](C(=O)N[C@H](C(=O)NCCN)c4cc(O)cc(O)c4-c4cc3ccc4O)[C@H](O)c3ccc(c(Cl)c3)Oc3cc2cc(c3O[C@@H]2O[C@H](CO)[C@@H](O)[C@H](O)[C@H]2O[C@H]2C[C@](C)(N)[C@H](O)[C@H](C)O2)Oc2ccc(cc2Cl)[C@H]1O`, for which the minimum inhibitory concentration (MIC) was 128 µg/mL (≈ 86.6 µM) in the assay with Acinetobacter baumannii; > 128 µg/mL against Klebsiella pneumoniae; 4 µg/mL (≈ 2.71 µM) in the assay on Staphylococcus aureus [1]; 32 µg/mL (≈ 21.7 µM) against Escherichia coli; > 128 µg/mL in the assay on Pseudomonas aeruginosa; 128 µg/mL (≈ 86.6 µM) in the assay with Enterococcus faecium [2]. Further, the values for the minimal inhibitory concentration (MIC) against Staphylococcus aureus [3], against Enterococcus faecium [4] and with Enterococcus faecium [5] were 2 µg/mL (≈ 1.35 µM), 128 µg/mL (≈ 86.6 µM) and 128 µg/mL (≈ 86.6 µM), respectively.
As to `CC(C)C[C@@H](N)C(=O)N[C@H]1C(=O)N[C@@H](CC(N)=O)C(=O)N[C@H]2C(=O)N[C@H]3C(=O)N[C@H](C(=O)N[C@H](C(=O)NCc4ccc(-c5ccccc5CN)cc4)c4cc(O)cc(O)c4-c4cc3ccc4O)[C@H](O)c3ccc(c(Cl)c3)Oc3cc2cc(c3O[C@@H]2O[C@H](CO)[C@@H](O)[C@H](O)[C@H]2O[C@H]2C[C@](C)(N)[C@H](O)[C@H](C)O2)Oc2ccc(cc2Cl)[C@H]1O`, the MIC was 16 µg/mL (≈ 9.82 µM) against Acinetobacter baumannii; > 128 µg/mL with Klebsiella pneumoniae; 0.5 µg/mL (≈ 0.307 µM) in the assay with Staphylococcus aureus [1]; 8 µg/mL (≈ 4.91 µM) against Escherichia coli; 32 µg/mL (≈ 19.6 µM) in the assay on Pseudomonas aeruginosa; 4 µg/mL (≈ 2.45 µM) against Enterococcus faecium [2]. Besides, the minimum inhibitory concentration (MIC) against Staphylococcus aureus [3] was 0.25 µg/mL (≈ 0.153 µM); with Enterococcus faecium [4], 4 µg/mL (≈ 2.45 µM); in the assay on Enterococcus faecium [5] it was 8 µg/mL (≈ 4.91 µM).
`CC(C)C[C@@H](N)C(=O)N[C@H]1C(=O)N[C@@H](CC(N)=O)C(=O)N[C@H]2C(=O)N[C@H]3C(=O)N[C@H](C(=O)N[C@H](C(=O)O)c4cc(O)c(CNCCCCCCCCN)c(O)c4-c4cc3ccc4O)[C@H](O)c3ccc(c(Cl)c3)Oc3cc2cc(c3O[C@@H]2O[C@H](CO)[C@@H](O)[C@H](O)[C@H]2O[C@H]2C[C@](C)(N)[C@H](O)[C@H](C)O2)Oc2ccc(cc2Cl)[C@H]1O`: the minimum inhibitory concentration (MIC) was 128 µg/mL (≈ 80.4 µM) with Acinetobacter baumannii; > 128 µg/mL against Klebsiella pneumoniae; 4 µg/mL (≈ 2.51 µM) against Staphylococcus aureus [1]; 128 µg/mL (≈ 80.4 µM) against Escherichia coli; 128 µg/mL (≈ 80.4 µM) with Pseudomonas aeruginosa; 64 µg/mL (≈ 40.2 µM) against Enterococcus faecium [2]. The MIC with Staphylococcus aureus [3] amounted to 4 µg/mL (≈ 2.51 µM); in the assay with Enterococcus faecium [4], 128 µg/mL (≈ 80.4 µM); in the assay with Enterococcus faecium [5], 128 µg/mL (≈ 80.4 µM).
Take `CC(C)C[C@@H](N)C(=O)N[C@H]1C(=O)N[C@@H](CC(N)=O)C(=O)N[C@H]2C(=O)N[C@H]3C(=O)N[C@H](C(=O)N[C@H](C(=O)NCCNC(=O)[C@@H](N)CCCNC(=N)N)c4cc(O)cc(O)c4-c4cc3ccc4O)[C@H](O)c3ccc(c(Cl)c3)Oc3cc2cc(c3O[C@@H]2O[C@H](CO)[C@@H](O)[C@H](O)[C@H]2O[C@H]2C[C@](C)(N)[C@H](O)[C@H](C)O2)Oc2ccc(cc2Cl)[C@H]1O`: the MIC against Acinetobacter baumannii is 64 µg/mL (≈ 39.2 µM); against Klebsiella pneumoniae, > 128 µg/mL; against Staphylococcus aureus [1], 2 µg/mL (≈ 1.22 µM); against Escherichia coli, 32 µg/mL (≈ 19.6 µM); with Pseudomonas aeruginosa it was 128 µg/mL (≈ 78.4 µM); against Enterococcus faecium [2], 16 µg/mL (≈ 9.79 µM). Also, the minimal inhibitory concentration (MIC) against Staphylococcus aureus [3] was determined as 1 µg/mL (≈ 0.612 µM); in the assay on Enterococcus faecium [4], 64 µg/mL (≈ 39.2 µM); in the assay with Enterococcus faecium [5], 16 µg/mL (≈ 9.79 µM).
In the case of `CC(=O)NC[C@H]1CN(c2ccc(N3CCOCC3)c(F)c2)C(=O)O1` [LINEZOLID], the MIC against Acinetobacter baumannii is 128 µg/mL (≈ 379 µM); in the assay on Klebsiella pneumoniae, > 128 µg/mL; in the assay on Escherichia coli, 128 µg/mL (≈ 379 µM); against Pseudomonas aeruginosa it was > 128 µg/mL; against Enterococcus faecium [2], 2 µg/mL (≈ 5.93 µM); in the assay on Enterococcus faecium [4] it was 2 µg/mL (≈ 5.93 µM). Further, the MIC with Enterococcus faecium [5] came out at 1 µg/mL (≈ 2.96 µM).
Consider `CN[C@H](CC(C)C)C(=O)N[C@H]1C(=O)N[C@@H](CC(N)=O)C(=O)N[C@H]2C(=O)N[C@H]3C(=O)N[C@H](C(=O)N[C@H](C(=O)NCc4ccc(-c5ccc(CCN)cc5)cc4)c4cc(O)cc(O)c4-c4cc3ccc4O)[C@H](O)c3ccc(c(Cl)c3)Oc3cc2cc(c3O[C@@H]2O[C@H](CO)[C@@H](O)[C@H](O)[C@H]2O[C@H]2C[C@](C)(N)[C@H](O)[C@H](C)O2)Oc2ccc(cc2Cl)[C@H]1O`, for which the MIC is 32 µg/mL (≈ 19.3 µM) against Acinetobacter baumannii; > 128 µg/mL with Klebsiella pneumoniae; 1 µg/mL (≈ 0.603 µM) in the assay with Staphylococcus aureus [1]; 16 µg/mL (≈ 9.65 µM) with Escherichia coli; 4 µg/mL (≈ 2.41 µM) against Enterococcus faecium [2]; 1 µg/mL (≈ 0.603 µM) against Staphylococcus aureus [3]. Also, the MIC against Enterococcus faecium [4] and in the assay on Enterococcus faecium [5] was 8 µg/mL (≈ 4.83 µM) in each case.
As to `CC(C)C[C@H](C(=O)N[C@H]1C(=O)N[C@@H](CC(N)=O)C(=O)N[C@H]2C(=O)N[C@H]3C(=O)N[C@H](C(=O)N[C@H](C(=O)O)c4cc(O)cc(O)c4-c4cc3ccc4O)[C@H](O)c3ccc(c(Cl)c3)Oc3cc2cc(c3O[C@@H]2O[C@H](CO)[C@@H](O)[C@H](O)[C@H]2O[C@H]2C[C@](C)(N)[C@H](O)[C@H](C)O2)Oc2ccc(cc2Cl)[C@H]1O)N(C)Cc1ccc(-c2ccc(CNC(=N)N)cc2)cc1`, the MIC was > 128 µg/mL against Acinetobacter baumannii; > 128 µg/mL in the assay on Klebsiella pneumoniae; 4 µg/mL (≈ 2.37 µM) against Staphylococcus aureus [1]; > 128 µg/mL with Escherichia coli; 32 µg/mL (≈ 19 µM) against Enterococcus faecium [2]; 1 µg/mL (≈ 0.593 µM) against Staphylococcus aureus [3]. In addition, the MIC in the assay on Enterococcus faecium [4] and with Enterococcus faecium [5] was 32 µg/mL (≈ 19 µM) throughout.
Consider `CC(C)C[C@H](C(=O)N[C@H]1C(=O)N[C@@H](CC(N)=O)C(=O)N[C@H]2C(=O)N[C@H]3C(=O)N[C@H](C(=O)N[C@H](C(=O)O)c4cc(O)cc(O)c4-c4cc3ccc4O)[C@H](O)c3ccc(c(Cl)c3)Oc3cc2cc(c3O[C@@H]2O[C@H](CO)[C@@H](O)[C@H](O)[C@H]2O[C@H]2C[C@](C)(N)[C@H](O)[C@H](C)O2)Oc2ccc(cc2Cl)[C@H]1O)N(C)Cc1ccc(-c2ccc(CCN)cc2)cc1`, for which the minimal inhibitory concentration (MIC) with Acinetobacter baumannii was > 128 µg/mL; in the assay with Klebsiella pneumoniae it was > 128 µg/mL; in the assay on Staphylococcus aureus [1] it was 8 µg/mL (≈ 4.82 µM); with Escherichia coli, > 128 µg/mL; with Enterococcus faecium [2], 64 µg/mL (≈ 38.6 µM); in the assay with Staphylococcus aureus [3], 1 µg/mL (≈ 0.603 µM). Besides, the MIC against Enterococcus faecium [4] and with Enterococcus faecium [5] was 64 µg/mL (≈ 38.6 µM) throughout.

One may read the MIC as the smallest concentration in the dilution series that meets the test's criterion for growth inhibition. Read a high MIC as weaker potency.

The values are drawn from ChEMBL document CHEMBL6127119 (J Med Chem, 2024).
